Assay results: US9464326B2, “Total and phosphorylated IL-1 receptor-associated kinase-1 and IL-1 receptor-associated kinase-4 as a biomarker for cancer progression and chemotherapy resistance” (University of Maryland, Baltimore, priority 2012, dated 2016)

Experiments:
Format in all cases: cell-based, human
G361 melanoma cells = experiment: Western blot of IRAK phosphorylation in G361; settings: Pam3CysK4 2.5 μg/ml or flagellin 100 ng/ml, 48 hours, FIG. 22B
Description: FIG. 22. Effects of TLR stimulation and cytokines on IRAK phosphorylation in melanoma cells. (A) A375 cells were cultured in the presence of anti-IL-18, anti-CXCL-1, (R&D Systems), anti-IL-1 (BioLegend), or mouse IgG (Sigma-Aldrich) all at 10 μg/ml. Forty-eight hours later the levels of the indicated proteins were determined by western blot. (B) A375 cells, which express p-IRAK-1 and p-IRAK-4, and G361 melanoma cells, which express very low levels of p-IRAK-1 (and express TLR5) were cultured in the presence of TLR1-TLR2 agonist (Pam3CysK4; 2.5 μg/ml) or TLR5 (flagellin; 100 ng/ml; InVivogen). Forty-eight hours later total protein was collected and the levels of the indicated proteins were examined by western blot.
Total cell extracts were prepared from melanoma cells. […] Melanoma tissue arrays were purchased from US Biomax, Inc (Rockville, Md.). For immunohistochemical staining samples were stained with mouse monoclonal anti-human phosphor-IRAK.-4 antibody (Abnova; dilution, 3.5 μg/ml) or normal mouse serum. Tissue histology sections (5-μm-thick) were deparaffinized, hydrated, heated in boiling 10 mmol/L sodium citrate (pH 6.0), for antigen retrieval, for 30 min and washed in Tris buffer. Peroxide blocking was done with 3% […] in methanol at room temperature for 15 min, followed by 10% fetal bovine serum in TBS-t for 30 min at room temperature. Primary antibody incubation was done overnight at 4° C. Secondary antibody incubation with horse anti-mouse (1:200; Vector Laboratories, Burlingame, Calif.) was done for 1 hr, followed by application of diaminobenzidine chromogen for 5 min. The slides were then counterstained with hematoxylin and topped with a coverslip. IHC specimens were analyzed using “quick score” system in which the intensity of the immunohistochemical reaction was scored by multiplying the intensity 1 (weak), 2 (moderate), and 3 (strong) and the proportion of cells staining positively 0 (<10%), 1 (10-25%), 2 (26-50%), 3 (51-75%) or 4 (>75%).

HH = experiment: Proliferation (3H-thymidine) of HH; settings: 3H-thymidine uptake, 72 h
Description: CCRF-CEM, CEM/C1, CEM/C2, CEM-C7, Jurkat, Loucy, Molt-4, HSB-2, SUP-T1, Hut 78, HH, Hut 102, MO, and H9 T-leukemia and T-lymphoma cell lines were purchased from the American Type Culture Collection (Manassas, Va., USA). All of the cell lines were initially expanded and cryopreserved within one month of receipt. Cells were typically used for 6 months at which time a fresh vial of cryopreserved cells was used. Total T cells from healthy donors were isolated via negative selection followed by positive selection using a CD3+ selection kit (Invitrogen, Carlsbad, Calif.). T cells were isolated from patients with T-ALL bone marrow or peripheral blood samples containing more than 70% leukemia cells using a CD2+ isolation kit (STEMCELL Technologies, Vancouver, Canada). All tissues were collected under institutional IRB-approved protocols and all participants gave written informed assent/consent. For in vitro experiments, T-ALL cells were cultured in AIM-V medium supplemented with 20% human AB serum in the presence of recombinant human stem cell factor (50 ng/mL; Amgen, Thousand Oaks, Calif.), insulin (20 nM; Sigma-Aldrich, St Louis, Mo., USA) and IL-7 (50 ng/mL; R&D Systems, Minneapolis, Minn., USA). […]
Cells were cultured in a 96-well plate (Corning Costar, Corning, N.Y., USA) with various concentrations of TLR ligands 1-9, starting at 10 μg/ml, in a final volume of 200 ul. […] After this time point, cells were harvested with a Packard Filter-Mate-96 cell harvester (Perkin Elmer, Waltham, Mass., USA) and counted on Packard Top Count-NXT (Perkin Elmer, Waltham, Mass., USA). Results were expressed as average counts per minute (cpm). […] Forty-eight hours later, proliferation (±SD) was determined by ^3H-thymidine incorporation. Alternatively, apoptosis was measured by flow cytometry after staining cells with Annexin-V (BD Pharmingen, San Diego, Calif., USA) and propidium iodide (Sigma). Cell number was counted under microscopy by staining cells with trypan blue. […]

Malme-3M melanoma cells = experiment: Apoptosis by annexin-V/PI flow cytometry in Malme-3M
Description: FIG. 8. IRAK-1,-4 inhibition sensitized melanoma cells to vinblastine-mediated cytotoxicity. (A) A375 and Malme-3M melanoma cells were cultured with or without 2.5 μM of IRAK-1,-4 and in the presence varying concentrations of vinblastine, cisplatin or 5′ Fluorouracil. Forty-eight hours later apoptosis was evaluated by staining cells with annexin-V and propidium iodide and analyzed by flow cytometry. (B) A375 cells were transfected via electroporation with siRNA-IRAK-1,-4. IRAK-1 protein levels were examined by Western blotting. […], A375-psiRNA-hIRAK-1, A375-psiRNA-hIRAK-4, or cells expressing both psiRNA-hIRAK-1 and -4 were cultured in the presence of vinblastine (100 nmol/L) for 48 hours and apoptosis was examined by flow cytometry. (C) A375 melanoma cells were cultured in the presence of vehicle alone (DMSO) or various concentrations of IRAK-1,-4. Forty-eight hours later cell lysates were used to analyze the expression of levels of cleaved PARP or caspase-3 by Western blots. (D) A375 melanoma cells were cultured with or without 2.5 μM of IRAK.-1,-4 and in the presence or absence of vinblastine for 48 hrs. PARP and caspase-3 levels were determined by Western blot.
The TLR1-TLR2 ligand tripalmitoyl-S-(bis(palmitoyloxy)propyl)-Cys-Ser-(Lys)3-Lys (Pam3Cys) was purchased from Invivogen (San Diego, Calif., USA). […] In some experiments cells were treated with the indicated concentrations of IRAK.-1,-4 inhibitor and vinblastine, cisplatin, and 5-fluorouracil (Sigma-Aldrich, St. Louis, Mo.), and apoptosis was quantitated by flow cytometry after staining cells with FITC-labeled annexin-V (BD Pharmingen, San Jose, Calif.) and propidium iodide (PI; Sigma-Aldrich).

tripalmitoyl-S-(bis(palmitoyloxy)propyl)-Cys-Ser-(Lys)3-Lys [Pam3Cysk4]
p-IRAK-1 or p-IRAK-4 expression levels (G361 melanoma cells): neither TLR-1-TLR2 agonist (Pam3CysK4), nor TLR5 (Flagellin) stimulation increased or induced | Proliferative effects of TLR ligands (HH): ∘

O=C(Nc1nc2ccccc2n1CCN1CCOCC1)c1cccc([N+](=O)[O-])c1 [IRAK-1,-4 inhibitor]
apoptosis with 5′-fluorouracil (Malme-3M melanoma cells; Malme3M, IRAK-1,-4 inhibitor with 0-100 nmol/L 5′-fluorouracil): appeared to enhance apoptosis | sensitivity to vinblastine (apoptosis) (Malme-3M melanoma cells; Malme-3M, 2.5 μmol/L IRAK-1,-4 inhibitor with 0-200 nmol/L vinblastine, 48 h): increased sensitivity | cisplatin's cytotoxicity (Malme-3M melanoma cells; Malme-3M, IRAK-1,-4 inhibitor with 0-50 nmol/L cisplatin): did not increase
